We go through 8 compounds from patent publication US10150776B2, “Harringtonines salts in the crystalline state and their use for the purification of the corresponding drug substance” (priority 2013, dated 2018).

System in the first data set: not listed separately
Kind of data set: Solubility determination in water, semi-quantitative. Format: physicochemical. Conditions: 25° C., semi-quantitative, read-out: Solubility in water (threshold). As to the method:
Solubility in water at 25° C. was measured semi-quantitatively at a threshold of 5 g per 100 mL. All the homoharringtonine salts described in the below examples, unless otherwise stated, are soluble at this threshold. Homoharringtonine base itself is soluble at a threshold lower than 0.1 g per mL
In general, solubility refers to how much of the substance goes into solution per volume. For the compound `COC(=O)C[C@](O)(CCCC(C)(C)O)C(=O)O[C@@H]1C(OC)=C[C@]23CCCN2CCc2cc4c(cc2[C@H]13)OCO4` [Homoharringtonine base, homoharringtonine], the solubility was below 100 mg/mL.

Staying with this data set, now noted: 25 °C.
For the compound `COC(=O)C[C@@](O)(CCCC(C)(C)O)C(=O)O[C@@H]1C(OC)=C[C@]23CCCN2CCc2cc4c(cc2[C@H]13)OCO4.O=C(O)C[C@H](O)C(=O)O` [Example 3, HOMOHARRINGTONINE HYDROGEN (2S)-MALATE], the solubility was above 60 mg/mL.

Another data set concerns cancer.
Assay: not given
More on the design: key: cytotoxic: CYTOTOXICITY is toxicity to tumor cells in culture; anticancer: ANTINEOPLASTIC or ANTICANCER iare the reserved terms for reportied clinical trials data. Conditions: in cancer area; terms defined in table footnote; cited from earlier work.
Take `COC(=O)C[C@](O)(CCC(C)(C)O)C(=O)O[C@@H]1C(OC)=C[C@]23CCCN2CCc2cc4c(cc2[C@H]13)OCO4` [Example 5a, harringtonine]: the Activity entry was “anticancer”.
With `COC(=O)CC(O)(CC(C)(C)O)C(=O)OC1C(OC)=CC23CCCN2CCc2cc4c(cc2C13)OCO4` (stereo not drawn) [Example 5c, norharringtonine], the Activity entry is “none”.
On to `COC(=O)C[C@](O)(CCC(C)C)C(=O)O[C@@H]1C(OC)=C[C@]23CCCN2CCc2cc4c(cc2[C@H]13)OCO4` [Example 5d, deoxyharringtonine], for which the Activity result is reported as “anticancer”.
Consider `COC(=O)CC(O)(CCCCC(C)(C)O)C(=O)OC1C(OC)=CC23CCCN2CCc2cc4c(cc2C13)OCO4` (stereo not drawn) [Example 5e, bishomoharringtonine], for which the Activity entry was “none”.
Consider `COC(=O)[C@@H](O)[C@](O)(CCC(C)C)C(=O)O[C@@H]1C(OC)=C[C@]23CCCN2CCc2cc4c(cc2[C@H]13)OCO4` [Example 5f, isoharringtonine], for which the Activity result is recorded as “none”.
For `COC(=O)C[C@](O)(CCCC(C)(C)O)C(=O)O[C@@H]1C(OC)=C[C@]23CCCN2CCc2cc4c(cc2[C@H]13)OCO4` [Homoharringtonine base, homoharringtonine], the Activity result is listed as “anticancer”.
In the case of neoharringtonine [Example 5g], the Activity result is given as “cytotoxic”.
